Measurements as given in PMC5498548.
Where “and” joins values, the source holds several entries; their conditions need not be identical. Identical values can stand only once. Like-named read-outs stand apart in the source and are kept apart here.

Target: IdeR (Mycobacterium tuberculosis, UniProt P9WMH1)
Assay: biochemical
Settings: EMSA
[1] = 0.35 µg IdeR, 0.8 picomoles labeled DNA, 200 µM NiSO4, inhibitor 0.4-100 µg/ml, read-out: IC50 (µg/ml) (converted)
[2] = same values given in µM, read-out: IC50
[3] = 0.35 µg IdeR, 0.8 picomoles labeled DNA, 200 µM NiSO4, inhibitor 0.4-100 µg/ml

Chain of IdeR (P9WMH1 whole entry, looked up): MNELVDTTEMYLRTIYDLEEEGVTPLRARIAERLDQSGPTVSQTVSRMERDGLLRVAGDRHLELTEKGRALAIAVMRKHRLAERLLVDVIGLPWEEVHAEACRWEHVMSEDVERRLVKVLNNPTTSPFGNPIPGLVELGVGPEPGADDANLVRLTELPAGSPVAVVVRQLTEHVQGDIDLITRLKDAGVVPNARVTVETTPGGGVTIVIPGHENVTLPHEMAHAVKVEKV

| Compound | IC50 [1] | IC50 [2] | IC50 [3] |
| --- | --- | --- | --- |
| NC(Cc1c[nH]c2cc(OCc3ccccc3)ccc12)C(=O)O (centres unmarked) [Compound I-92, 2-amino-3-[6-(benzyloxy)-1H-indol-3-yl]propanoic acid] | 189 µM | 189 µM | – |
| Cc1ccccc1NC(=O)Nc1cccc(-c2nnc(Cc3ccc4c(c3)OCO4)o2)c1 [IA8, 3-[3-[5-(1,3-benzodioxol-5-ylmethyl)-1,3,4-oxadiazol-2-yl]phenyl]-1-(o-tolyl) urea] | 143 µM | – | – |
| O=S(=O)(O)c1cccc2cccc(N=Nc3c(O)ccc4ccccc34)c12 [IS-6, 8-[-(2-hydroxynaphthalen-1-yl)diazenyl]naphthalene-1-sulfonic acid] | 57.2 µM | 54 µM | – |
| Cc1ccccc1N=Nc1ccc2c(S(=O)(=O)[O-])cccc2c1O.[Na+] [Compound I-90, 1-Naphthalenesulfonic acid,5-hydroxy-6-[(2-methylphenyl)azo]-monosodium salt] | – | 124 µM | 45.27 ± 1.3 µg/mL |
| O=S(=O)(O)c1ccc(O)c(/N=N/c2ccc(O)cc2O)c1 [IS-2, Benzensulfonic acid, 3-[(2,4-dihydroxyphenyl)azo]-4-hydroxy] | 17.4 µM and 17.7 µM | 16.3 µM | – |
| Cc1c2ccccc2nc(C[S+]([O-])c2ccccc2)[n+]1[O-] (centres unmarked) [Compound I-93, 4-methyl-2-[(phenylsulfinyl)methyl]quinazoline 3-oxide] | 181 µM | 182 µM | – |
| O=C(NN1C(=O)C=C(O)C1=Cc1ccccc1)c1ccccc1 [Compound I-112, N-[2-benzylidene-3-hydroxy-5-oxo-2,5-dihydro-1H-pyrrol-1-yl]benzamide] | 170 µM | 170 µM | – |
| 4-oxo-3-({4-[-(4-sulfophenyl)diazenyl]phenyl}hydrazono)-3,4-dihydro-1-naphtalenesulfonic acid [IS-7] | – | 57.5 µM | 32.13 ± 1.56 µg/mL |
| O=S(=O)(Nc1ccc(Cl)cc1NS(=O)(=O)c1ccccc1)c1ccccc1 [Compound I-85, N,N`-(4-chlorobenzene-1,2-diyl)dibenzenesulfonamide] | 67.2 µM | 67.1 µM | – |
| 5[phenylimino)methyl]benzene-1,2,3 triol [IS-51] | – | 72 µM | 16.5 µg/mL and 16.52 ± 1.72 µg/mL |
| O=S(=O)(O)c1cccc2c(O)c(N=Nc3cccc4ccccc34)ccc12 [IS-55, 1-napthalenesulfonic acid,5-hydroxy-6-(1-naphthalenylazo)] | – | 16.4 µM | 6.6 ± 1.95 µg/mL |
| O=S(=O)(Nc1c(Cl)c(Cl)c(Cl)c(Cl)c1NS(=O)(=O)c1ccccc1)c1ccccc1 [IS-70, N,N-(3,4,5,6-tetrachlorobenzene-1,2-diyl) dibenzenesulfonamide] | – | 88.3 µM | 46.44 ± 1.486 µg/mL |
| O=C(NN=c1ccc([N+](=O)[O-])c[nH]1)Nc1ccc(-c2ccccc2)cc1 [Compound I-89, N-(biphenyl-4-yl)-2-(5-nitropyridin-2(1H)-ylidene)hydrazinecarboxamide] | 83.3 µM | 83.4 µM | – |
| Cc1cc(=O)oc2c(CNC(C(=O)O)C(C)O)c(O)ccc12 (centres unmarked) [IS-40, 3-hydroxy-2-{[(7-hydroxy-4-methyl-2-oxo-2H-chromen-8-yl)methyl]amino}butanoic acid] | 269 µM | 275 µM | – |
| Cc1cc(=O)oc2c(CNC(C)C(=O)O)cc(O)cc12 (centres unmarked) [Compound I-38] | – | 361 µM | 100 ± 3.176 µg/mL |
| Nc1ccc(-c2nc3ccccc3s2)cc1S(=O)(=O)O [IS-32, 2-Amino-5-(1,3-benzothiazol-2-yl) benzenesulfonic acid] | 68.3 µM | 64.8 µM | – |
| O=S(=O)(O)c1ccc(O)c(/N=N/c2ccc(O)cc2O)c1 [IS-12, Benzene sulfonic acid, 3-[(2,4-dihydroxyphenyl)azo]-4-hydroxy] | 15.1 µM | 15.2 µM | – |
| COc1ccccc1N=Nc1cc(S(=O)(=O)O)c2ccccc2c1O [IS-59] | – | 48.9 µM | 18.64 ± 1.532 µg/mL |
